Key:
Test in all cases: KINOMEscan competition binding
Details in all cases: compound 10.0 µM
GSK3B (human) = GSK3B (human) (UniProt P49841)
RET (human) = RET (human) (UniProt P07949)
DMPK (human) = DMPK (human) (UniProt Q09013)
EPHB3 (human) = EPHB3 (human) (UniProt P54753)
MAP2K1 (human) = MAP2K1 (human) (UniProt Q02750)
EPHB1 (human) = EPHB1 (human) (UniProt P54762)
PRPF4B (human) = PRPF4B (human) (UniProt Q13523)
INSR (human) = INSR (human) (UniProt P06213)
[1] = system: EGFR (human), P00533 [747-751 del / S ins]
SIK2 (human) = SIK2 (human) (UniProt Q9H0K1)
Sequence of SIK2 (human) (Q9H0K1 whole entry, looked up): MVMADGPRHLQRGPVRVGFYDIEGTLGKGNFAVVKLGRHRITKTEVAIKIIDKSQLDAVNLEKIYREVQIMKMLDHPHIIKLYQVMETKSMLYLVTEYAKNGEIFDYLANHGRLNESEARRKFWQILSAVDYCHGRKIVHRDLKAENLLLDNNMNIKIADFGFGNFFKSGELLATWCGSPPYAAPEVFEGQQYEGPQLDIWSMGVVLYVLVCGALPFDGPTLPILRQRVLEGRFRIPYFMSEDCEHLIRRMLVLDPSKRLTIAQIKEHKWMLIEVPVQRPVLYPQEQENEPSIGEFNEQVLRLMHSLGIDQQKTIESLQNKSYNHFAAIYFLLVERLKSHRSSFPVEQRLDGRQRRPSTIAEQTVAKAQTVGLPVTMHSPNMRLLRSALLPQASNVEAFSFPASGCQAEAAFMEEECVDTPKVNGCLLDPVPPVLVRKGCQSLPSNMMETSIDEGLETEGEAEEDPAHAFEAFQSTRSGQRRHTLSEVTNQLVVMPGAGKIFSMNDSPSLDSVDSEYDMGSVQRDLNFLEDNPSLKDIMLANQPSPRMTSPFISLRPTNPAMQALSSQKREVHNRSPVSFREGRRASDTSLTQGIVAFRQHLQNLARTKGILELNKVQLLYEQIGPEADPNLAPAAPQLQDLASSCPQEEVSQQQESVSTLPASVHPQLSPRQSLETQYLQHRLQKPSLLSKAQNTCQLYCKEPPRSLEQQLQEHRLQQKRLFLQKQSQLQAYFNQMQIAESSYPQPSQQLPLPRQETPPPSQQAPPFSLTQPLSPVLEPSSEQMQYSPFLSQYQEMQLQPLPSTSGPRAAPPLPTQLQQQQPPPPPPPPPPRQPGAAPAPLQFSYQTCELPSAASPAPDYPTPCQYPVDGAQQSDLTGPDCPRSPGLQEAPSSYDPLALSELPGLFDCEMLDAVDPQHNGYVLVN

PHKG2 (human) = PHKG2 (human) (UniProt P15735)
AXL (human) = AXL (human) (UniProt P30530)
RIPK2 (human) = RIPK2 (human) (UniProt O43353)
NTRK2 (human) = NTRK2 (human) (UniProt Q16620)
AURKB (human) = AURKB (human) (UniProt Q96GD4)
SNRK (human) = SNRK (human) (UniProt Q9NRH2)
MTOR (human) = MTOR (human) (UniProt P42345)
CDC42BPA (human) = CDC42BPA (human) (UniProt Q5VT25)
DDR1 (human) = DDR1 (human) (UniProt Q08345)
AKT1 (human) = AKT1 (human) (UniProt P31749)
[2] = system: KIT (human), P10721 [V559D/T670I]
IRAK1 (human) = IRAK1 (human) (UniProt P51617)
[3] = system: PIK3CA (human), P42336 [E542K]
PHKG1 (human) = PHKG1 (human) (UniProt Q16816)
FLT4 (human) = FLT4 (human) (UniProt P35916)
ADCK4 (human) = ADCK4 (human) (UniProt Q96D53)
CAMK2B (human) = CAMK2B (human) (UniProt Q13554)
[4] = biological target: TYK2 JH1 catalytic (human) (UniProt P29597)
FLT1 (human) = FLT1 (human) (UniProt P17948)
Sequence of FLT1 (human) (P17948 whole entry, looked up): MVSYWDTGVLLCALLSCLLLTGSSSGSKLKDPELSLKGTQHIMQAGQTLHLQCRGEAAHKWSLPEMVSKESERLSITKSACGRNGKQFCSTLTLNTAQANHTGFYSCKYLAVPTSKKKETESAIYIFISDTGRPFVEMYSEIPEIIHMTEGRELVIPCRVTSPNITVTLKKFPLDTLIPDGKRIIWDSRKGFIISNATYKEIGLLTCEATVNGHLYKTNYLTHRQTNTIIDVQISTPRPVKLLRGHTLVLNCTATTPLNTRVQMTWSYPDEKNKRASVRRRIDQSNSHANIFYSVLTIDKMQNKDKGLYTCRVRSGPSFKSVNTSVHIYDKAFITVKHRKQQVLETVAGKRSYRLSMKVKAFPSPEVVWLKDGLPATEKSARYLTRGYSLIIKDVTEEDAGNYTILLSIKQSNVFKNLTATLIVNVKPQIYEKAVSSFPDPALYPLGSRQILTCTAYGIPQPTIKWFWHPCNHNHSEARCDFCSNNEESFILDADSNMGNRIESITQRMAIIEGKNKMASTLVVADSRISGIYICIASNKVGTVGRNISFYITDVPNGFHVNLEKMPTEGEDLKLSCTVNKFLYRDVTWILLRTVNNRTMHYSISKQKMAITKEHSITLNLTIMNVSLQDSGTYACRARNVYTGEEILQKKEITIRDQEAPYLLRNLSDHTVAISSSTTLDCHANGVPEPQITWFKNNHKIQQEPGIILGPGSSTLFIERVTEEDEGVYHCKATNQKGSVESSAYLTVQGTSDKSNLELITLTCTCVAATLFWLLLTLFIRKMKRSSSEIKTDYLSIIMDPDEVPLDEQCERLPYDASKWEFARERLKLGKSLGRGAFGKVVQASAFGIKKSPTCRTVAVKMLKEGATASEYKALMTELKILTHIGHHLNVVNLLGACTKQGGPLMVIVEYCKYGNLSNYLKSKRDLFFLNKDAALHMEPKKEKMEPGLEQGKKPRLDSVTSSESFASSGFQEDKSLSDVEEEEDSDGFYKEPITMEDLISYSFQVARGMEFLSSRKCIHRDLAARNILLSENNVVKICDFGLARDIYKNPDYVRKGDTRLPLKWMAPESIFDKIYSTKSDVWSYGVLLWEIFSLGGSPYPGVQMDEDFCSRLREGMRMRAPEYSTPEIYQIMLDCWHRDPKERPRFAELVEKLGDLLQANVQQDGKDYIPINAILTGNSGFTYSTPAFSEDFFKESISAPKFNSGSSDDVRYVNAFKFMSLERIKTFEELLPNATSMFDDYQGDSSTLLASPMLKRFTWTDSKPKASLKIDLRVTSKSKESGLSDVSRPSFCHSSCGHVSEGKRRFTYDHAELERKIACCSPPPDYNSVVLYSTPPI

SBK1 (human) = SBK1 (human) (UniProt Q52WX2)
[5] = system: RET (human), P07949 [V804L]
Sequence of RET (human), P07949 [V804L] (P07949 whole entry V804L, looked up): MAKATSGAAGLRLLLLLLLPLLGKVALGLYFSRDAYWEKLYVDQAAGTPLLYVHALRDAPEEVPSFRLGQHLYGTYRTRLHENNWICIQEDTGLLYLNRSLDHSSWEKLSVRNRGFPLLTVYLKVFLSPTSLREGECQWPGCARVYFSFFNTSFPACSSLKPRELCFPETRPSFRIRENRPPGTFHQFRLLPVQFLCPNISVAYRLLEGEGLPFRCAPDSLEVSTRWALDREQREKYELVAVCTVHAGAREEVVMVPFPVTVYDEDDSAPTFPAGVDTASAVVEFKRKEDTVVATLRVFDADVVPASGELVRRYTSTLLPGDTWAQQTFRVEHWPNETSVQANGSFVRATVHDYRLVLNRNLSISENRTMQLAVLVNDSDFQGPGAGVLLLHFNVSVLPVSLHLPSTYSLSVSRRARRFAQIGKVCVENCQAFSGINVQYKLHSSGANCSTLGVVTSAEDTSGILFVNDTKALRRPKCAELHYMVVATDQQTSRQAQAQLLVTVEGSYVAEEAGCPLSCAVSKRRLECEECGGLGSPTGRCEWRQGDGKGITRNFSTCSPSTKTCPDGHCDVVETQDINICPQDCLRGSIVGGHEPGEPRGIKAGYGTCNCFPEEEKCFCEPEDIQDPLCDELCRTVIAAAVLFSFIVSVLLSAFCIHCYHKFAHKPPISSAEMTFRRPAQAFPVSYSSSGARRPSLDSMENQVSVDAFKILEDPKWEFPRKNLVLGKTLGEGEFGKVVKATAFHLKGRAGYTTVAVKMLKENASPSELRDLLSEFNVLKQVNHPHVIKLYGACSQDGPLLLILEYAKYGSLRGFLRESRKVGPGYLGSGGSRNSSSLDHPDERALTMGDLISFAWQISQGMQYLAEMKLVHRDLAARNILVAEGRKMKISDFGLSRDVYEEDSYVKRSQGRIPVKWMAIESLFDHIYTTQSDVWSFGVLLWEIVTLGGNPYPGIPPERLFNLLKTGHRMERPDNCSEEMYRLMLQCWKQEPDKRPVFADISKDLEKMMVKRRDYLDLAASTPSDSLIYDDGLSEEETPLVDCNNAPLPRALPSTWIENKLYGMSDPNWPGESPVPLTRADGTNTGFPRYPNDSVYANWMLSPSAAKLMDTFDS

CDK2 (human) = CDK2 (human) (UniProt P24941)
SLK (human) = SLK (human) (UniProt Q9H2G2)
MAK (human) = MAK (human) (UniProt P20794)
[6] = biological target: JAK1 JH1 catalytic (human) (UniProt P23458)
INSRR (human) = INSRR (human) (UniProt P14616)
Sequence of INSRR (human) (P14616 whole entry, looked up): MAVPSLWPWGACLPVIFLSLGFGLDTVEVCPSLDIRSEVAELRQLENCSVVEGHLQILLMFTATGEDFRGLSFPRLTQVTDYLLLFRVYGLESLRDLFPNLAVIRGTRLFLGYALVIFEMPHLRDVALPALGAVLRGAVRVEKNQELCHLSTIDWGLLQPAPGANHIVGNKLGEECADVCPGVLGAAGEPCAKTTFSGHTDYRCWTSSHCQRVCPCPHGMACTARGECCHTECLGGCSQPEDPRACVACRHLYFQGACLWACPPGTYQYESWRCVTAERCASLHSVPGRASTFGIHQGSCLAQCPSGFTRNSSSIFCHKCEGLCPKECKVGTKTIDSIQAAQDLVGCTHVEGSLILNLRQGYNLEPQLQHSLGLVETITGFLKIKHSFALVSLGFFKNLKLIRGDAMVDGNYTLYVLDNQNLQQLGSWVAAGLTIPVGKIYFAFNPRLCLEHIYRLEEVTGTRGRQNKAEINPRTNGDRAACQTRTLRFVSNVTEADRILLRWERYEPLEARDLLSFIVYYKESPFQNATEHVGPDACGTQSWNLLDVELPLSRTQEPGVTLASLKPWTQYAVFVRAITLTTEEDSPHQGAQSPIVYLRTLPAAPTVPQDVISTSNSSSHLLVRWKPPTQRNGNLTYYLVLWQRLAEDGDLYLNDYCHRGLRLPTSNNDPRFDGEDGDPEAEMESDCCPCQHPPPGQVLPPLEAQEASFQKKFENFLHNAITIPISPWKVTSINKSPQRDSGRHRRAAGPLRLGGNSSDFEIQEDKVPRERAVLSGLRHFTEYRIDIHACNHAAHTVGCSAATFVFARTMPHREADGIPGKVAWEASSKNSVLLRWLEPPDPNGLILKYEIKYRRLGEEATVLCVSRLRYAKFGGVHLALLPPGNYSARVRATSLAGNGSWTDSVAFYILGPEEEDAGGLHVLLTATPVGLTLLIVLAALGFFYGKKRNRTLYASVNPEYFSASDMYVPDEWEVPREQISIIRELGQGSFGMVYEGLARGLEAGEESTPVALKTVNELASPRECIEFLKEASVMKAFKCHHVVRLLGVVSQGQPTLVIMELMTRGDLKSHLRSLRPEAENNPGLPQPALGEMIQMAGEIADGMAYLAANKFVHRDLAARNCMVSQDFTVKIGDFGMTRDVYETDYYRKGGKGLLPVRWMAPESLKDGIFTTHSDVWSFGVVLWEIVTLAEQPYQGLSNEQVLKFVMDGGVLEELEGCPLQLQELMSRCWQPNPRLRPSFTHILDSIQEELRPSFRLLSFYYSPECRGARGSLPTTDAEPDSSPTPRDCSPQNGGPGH

MYLK3 (human) = MYLK3 (human) (UniProt Q32MK0)
MST1R (human) = MST1R (human) (UniProt Q04912)
[7] = system: ABL1 (human), P00519 [Y253F]
[8] = system: EGFR (human), P00533 [746-750 del]
PRKACA (human) = PRKACA (human) (UniProt P17612)

Sequence of GSK3B (human) (P49841 whole entry, looked up): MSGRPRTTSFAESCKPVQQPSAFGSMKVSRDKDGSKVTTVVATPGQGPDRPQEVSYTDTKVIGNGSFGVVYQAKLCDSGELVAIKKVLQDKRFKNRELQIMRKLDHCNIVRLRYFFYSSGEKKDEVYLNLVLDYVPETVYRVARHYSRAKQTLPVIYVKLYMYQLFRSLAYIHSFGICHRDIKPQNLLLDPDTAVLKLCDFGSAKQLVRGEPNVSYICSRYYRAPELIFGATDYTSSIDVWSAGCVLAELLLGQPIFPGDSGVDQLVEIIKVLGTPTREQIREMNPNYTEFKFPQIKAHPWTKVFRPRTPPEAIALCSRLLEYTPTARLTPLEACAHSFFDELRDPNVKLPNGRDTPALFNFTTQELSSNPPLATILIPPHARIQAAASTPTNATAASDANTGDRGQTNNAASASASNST

COc1cc(C(=O)N2CCC(N3CCN(C)CC3)CC2)ccc1Nc1ncc2c(n1)N(C)c1ccccc1C(=O)N2C gave a kinase still bound, per cent of control (GSK3B (human)) of 88%, a kinase still bound, per cent of control (RET (human)) of 100% and a kinase still bound, per cent of control (DMPK (human)) of 100%. It also gave a kinase still bound, per cent of control (EPHB3 (human)) of 100%, a kinase still bound, per cent of control (MAP2K1 (human)) of 100% and a kinase still bound, per cent of control (EPHB1 (human)) of 98%. It also gave a kinase still bound, per cent of control (PRPF4B (human)) of 93%, a kinase still bound, per cent of control (INSR (human)) of 84% and a kinase still bound, per cent of control [1] of 100%. The kinase still bound, per cent of control (SIK2 (human)) was 98%, the kinase still bound, per cent of control (PHKG2 (human)) was 33% and the kinase still bound, per cent of control (AXL (human)) was 100%. For the same compound, the kinase still bound, per cent of control (RIPK2 (human)) was 100%, the kinase still bound, per cent of control (NTRK2 (human)) was 100% and the kinase still bound, per cent of control (AURKB (human)) was 38%. The kinase still bound, per cent of control (SNRK (human)) was 94%, the kinase still bound, per cent of control (MTOR (human)) was 97% and the kinase still bound, per cent of control (CDC42BPA (human)) was 100%. The kinase still bound, per cent of control (DDR1 (human)) was 100%, the kinase still bound, per cent of control (AKT1 (human)) was 79% and the kinase still bound, per cent of control [2] was 81%. It also gave a kinase still bound, per cent of control (IRAK1 (human)) of 100%, a kinase still bound, per cent of control [3] of 77% and a kinase still bound, per cent of control (PHKG1 (human)) of 54%. It also gave a kinase still bound, per cent of control (FLT4 (human)) of 100%, a kinase still bound, per cent of control (ADCK4 (human)) of 94% and a kinase still bound, per cent of control (CAMK2B (human)) of 62%. For the same compound, the kinase still bound, per cent of control [4] was 52%, the kinase still bound, per cent of control (FLT1 (human)) was 100% and the kinase still bound, per cent of control (SBK1 (human)) was 100%. It also gave a kinase still bound, per cent of control [5] of 89%, a residual activity (CDK2 (human)) of 100% and a kinase still bound, per cent of control (SLK (human)) of 100%. It also gave a kinase still bound, per cent of control (MAK (human)) of 72%, a kinase still bound, per cent of control [6] of 100% and a kinase still bound, per cent of control (INSRR (human)) of 97%. The kinase still bound, per cent of control (MYLK3 (human)) was 100%, the kinase still bound, per cent of control (MST1R (human)) was 98% and the kinase still bound, per cent of control [7] was 89%. The kinase still bound, per cent of control [8] was 72% and the residual activity (PRKACA (human)) was 100%.
